Consider 7 compounds from patent US9205156B2, “Molecular imaging agents” (HADASIT MEDICAL RESEARCH SERVICES & DEVELOPMENT LIMITED, priority 2010, dated 2015).

A short description of data set [1]: Tracer biodistribution studies in mice (γ-counter, % ID/g). The protocol:
Compounds [^11C]-1, [^11C]-2, [^11C]-3, [^11C]-4, [^11C]-6, [^11C]-7 and Technetium-99 m methoxy isobutyl isonitrile ([^99mTc]MIBI) biodistribution studies were carried out with BALB/c Ola/Hsd mice (7-8 week). Tracers were injected in a 10% EtOH/saline solution as vehicle. Either [^11C]-1 (62±15 μCi; […]; 122±13 μL), [^11C]-2 (68±12 μCi; 2.5±0.4 MBq; 188±1.3 μL), [^11C]-3 (70±17 μCi; 2.6±0.6 MBq; 185±5 μL), [^11C]-4 (18±5 μCi; […]; 195±2.2 μL or 1.24±0.93 MBq, 229±63 μL), [^11C]-6 (1.95±0.21 MBq, 83±41 μL), [^11C]-7 (2.01±0.16 MBq, 169±73 μL) or [^99mTc]mibi (14.2±1.7 μCi; 3.6±0.4 MBq; 97.7±12.5 μL) were injected via the lateral vein. At allotted time points (1, 5, 10, 15 min), blood was drawn from the orbital sinus, mice were sacrificed by cervical dislocation and selected organs (heart, lungs, liver and kidney) were excised, weighed and measured for their radioactive content using a γ-counter (1480 Wizard 3″). Distribution of activity was calculated as the percentage of injected dose per gram of organ (% ID/g). Activity uptake ratios of various organs were calculated by dividing the corresponding calculated % ID/gs.
Distribution of activity was calculated as the percentage of injected dose per gram of wet tissue (% ID/g). Activity uptake ratios of various organs were calculated by dividing the corresponding calculated % ID/g. Heart standardized uptake values (SUVs) were calculated by dividing the % ID in the heart of each rat by the percentage of heart weight of the total body weight of the animal.

The conditions of data set [2]: literature reference value; cited from earlier work.
Data set [3] in a line: Micro-PET scans in rats, time activity curves. The data set is classed as in vivo, Wistar rats. To be noted: microPET; for myocardial radioactivity uptake: isoflurane anesthesia. The protocol:
Micro-PET scans were also carried out using healthy Wistar rats (154±47 g). Anesthesia was induced, and thereafter maintained by 3% and 1%-2.5% isoflurane in O2, respectively. During the scans, rats were maintained normothermic using a heating blanket. All CT and PET acquisitions were carried out using the Inveon™ multimodality PET-CT small animal-dedicated scanner (Siemens Medical Solutions USA Inc.). Rats were positioned in the scanner so that the heart was in the center of the field of view. Following a CT scan, PET list-mode acquisition was started at the time of injection of [^11C]-4 (14.3±5.7 Mbq/rat, n=4) or [^13N]—NH3 (81.1±20.4 Mbq/rat, n=6) in the lateral tail vein. Acquisitions continued for 60 min or 40 min post-injection, for [^11C]-4 or [^13N]—NH3, respectively.
The list-mode emission scans were sorted into 29 (6×10, 8×30, 5×60, 10×300 sec) and 24 (12×10, 6×30, 5×300, 1×600 sec) dynamic frames, for [^11C]-4 and [^13N]—NH3 respectively. Emission sinograms were normalized and corrected for attenuation, dead time and decay. Image reconstruction was performed using Fourier rebinning and two dimensional ordered-subsets expectation maximization (2D-OSEM), with a voxel size of 0.776×0.776×0.796 mm^3.
Image analysis and quantification of radioactivity concentration in regions of interest (ROIs) were performed using Inveon Research Workplace 3.1 (Siemens Medical Solutions USA Inc.). Delineation of ROIs was performed by manual segmentation, and the corresponding time activity curves (TACs) were calculated.

A short description of data set [4]: Biodistribution of [11C]-4 in rats (γ-counter, % ID/g, heart SUV). The format is in vivo, SD/Hsd rats. The protocol:
Similar to the biodistribution studies in mice, [^11C]-4 was injected into male SD/Hsd rats (293±9 g) in a 10% EtOH/saline solution (3.1±0.5 MBq; 530±134 μL) via the lateral tail vein. At the allotted time points, blood was drawn, animals were sacrificed, and selected organs were excised, weighed and measured for their radioactive content.

Data set [5] in a line: PET/CT studies in a porcine model of LCx coronary artery occlusion (rest and adenosine stress). The data set is classed as in vivo, pigs. The protocol: Following a constriction of the left circumflex coronary artery (LCxA) via insertion and manipulation of a stent, stress and rest dynamic-PET studies were performed in three pigs. Pigs underwent dynamic PET acquisition following injections of [^11C]-4 both at rest and under pharmacological stress [(207±30 MBq in 10±4 mL) and (203±11 MBq in 16±1 mL), respectively]. Images were acquired for each animal at rest and stress on the same day, allowing a minimum of 5 half-lives (approximately 2 h for carbon-11 and 1 h for nitrogen-13) in between injections to minimize crosstalk. Pharmacological stress was induced by an IV infusion of adenosine (500 μg×min^−1×kg^−1 body weight), beginning 3 min prior to injection of the tracers, and maintained for an additional 3 min. When necessary, hypotension was prevented by concomitant IV administration of dobutamine (2 μg×min^−1×kg^−1 body weight).
In order to prevent complete occlusion in the third pig, the angiography and stent insertion were carried out in the PET/CT room, thus minimizing the animal's movement, and the animal was given higher doses of heparin (a sum of 30,000 units throughout the experiment) based on Activated Clotting Time (ACT) test. In the third pig, the adenosine stress protocol was performed twice: once with [^13N]NH3 (700 MBq in 1 mL) injection, and 2.5 h later, the adenosine stress protocol was repeated with [^11C]-4 injection.
To prevent blood clotting, pigs were treated with aspirin (250-300 mg) and plavix (150-300 mg) on the day before the procedure. On the day of the study, the animals were anesthetized using ketamine/xylazine (15 mg/kg/2 mg/kg) and Butorphanol 0.2 mg/kg IM as premedication. For induction, ketamin/diazepam (4 mg/kg/0.02 mg/kg) was administered intravenously. Animals were ventilated and anesthesia, maintained using isoflorane 2% inhalation (via tracheal tube). Animals were monitored continuously for ECG, body temperature, O2 saturation, blood pressure, pulse and breathing. Vascular access was prepared in the left and right ear veins for drug and tracer administration, and a catheter was placed in the left femoral artery for stent insertion and arterial blood pressure measurements.
Following anesthesia, the pigs underwent cannulation of the left femoral artery with a 7 Fr introducer sheath and a 7 Fr hockeystick catheter (Cordis) was positioned in the left main coronary artery. Partial LCx coronary artery occlusion was induced via partial inflation of the proximal component of a JOSTENT Graftmaster (Abbott Vascular, USA) inside the LCx coronary artery, creating a funnel-shaped structure. Before insertion of the stent, the 3.5×16 mm JOSTENT was partially crimped over a 3.5 mm balloon with its distal third beyond the inflating balloon. Inflation of the balloon dilates the crimped part leaving a distal cone that is not dilated with an orifice approximately 1 mm in diameter. Thus, when deployed in an artery that is 3.5 mm in diameter, a partial, yet significant stenosis was established.
Coronary angiography was performed with 20-30 mL of contrast media and 3.5 mm wide and >20 mm long segment of the LCx artery that was free of major branches. The stent system was brought to the assigned segment over a floppy 0.014 coronary wire (ASAHI). The balloon was inflated with a pressure of 14-16 atmospheres (10-15 seconds) and the balloon was then deflated and withdrawn. Angiography was then performed in two different projections to ascertain that the cone-shaped stent enabled preserved continuous flow through its patent distal orifice. To ensure partial stenosis rather than complete occlusion of the artery during the PET imaging, a repeated angiography was taken at the end of imaging.
Animals were placed in a supine position with the heart in the center of the field of view of the PET/CT scanner. Imaging was performed on a Discovery ST PET/CT tomograph (GE Healthcare, Milwaukee, Wis.), with intrinsic spatial resolution: in-plane 6.2 mm, axial 5.0 mm. […]

[6] abbreviates: mice, time point not stated (within 15 min period).
[7] abbreviates: BALB/c Ola/Hsd, mouse, in vivo, 5 min.
The mark [8] stands for this setting: BALB/c Ola/Hsd, mouse, in vivo, 10 min.
Setting [9] is: BALB/c Ola/Hsd, mouse, in vivo, 15 min.

Values joined by “and” are separate entries in the source; they are usually repeats but may differ in a detail not shown here. Equal values may be shown once.

Broadly, the log P is a log measure of how a compound divides between an organic and an aqueous phase. For the compound `C[N+](C)([11CH3])c1ccccc1` [[^11C]-2, [^11C]trimethyl-phenyl-ammonium iodide], the “radioactivity uptake in the heart” value is 29.5 % ID/g in data set [1] (mice, 1 min post injection); 26.8 % ID/g in data set [1] (mice, 5 min post injection); 18.5 % ID/g and ~20 % ID/g in data set [1] (mice, 10 min post injection); 13.9 % ID/g in data set [1] (mice, 15 min post injection). The “heart/blood activity uptake ratio” value is 15.5 fold in data set [1] (mice, 5 min post injection); 13.3 fold and ~13 fold in data set [1] (mice, 10 min post injection); 16 fold in data set [1] (setting [6]). Moreover, in data set [1] (mice, 5 min post injection), the “heart/liver activity uptake ratio” value came out at 1.9. In data set [1] (mice, 5 min post injection), the “heart/lungs activity uptake ratio” value is reported as 2.6. Moreover, the “log P” value in data set [2] is listed as −2.74.
With `C[N+]([11CH3])(c1ccccc1)c1ccccc1` [[^11C]-4, [^11C]dimethyl-diphenyl-ammonium iodide], the “radioactivity uptake in the heart” value in data set [1] (BALB/c Ola/Hsd, mouse, in vivo, 1 min) is reported as 46.6 % ID/g. In data set [1] (setting [7]), the “heart/blood activity uptake ratio” value came to 44 fold and the “radioactivity uptake in the heart” value amounted to 50.4 % ID/g. Moreover, in data set [1] (setting [8]), the “heart/blood activity uptake ratio” value came out at 61 fold and the “radioactivity uptake in the heart” value was 62.5 % ID/g. In addition, in data set [1] (setting [9]), the “Heart SUV” value amounted to 9.7±0.5 and the “radioactivity uptake in the heart” value is recorded as 44.5 % ID/g. In data set [1] (mouse, in vivo), the “heart uptake compared to [99mTc]-MIBI” value was “twice as high”. Besides, in data set [3], the “kidney radioactivity uptake, initial peak value” came out at 6 % ID/mL and the myocardial radioactivity uptake was approximately 3 % ID/mL. Moreover, in data set [3] (20 min after injection), the kidney radioactivity uptake is approximately 1 % ID/mL. Moreover, in data set [4], the “stable heart SUVs” value was “about 15”. In data set [4] (5-15 min after injection), the heart/blood activity ratios is 67.5-88.5. In data set [4] (10 min after injection), the heart/kidneys uptake ratio worked out at 3.5, the heart/liver uptake ratio came out at 3.2 and the heart/lungs uptake ratio came to 2.4. Also, in data set [4] (15 min post injection), the “Heart SUV” value came to 15.6±0.4; the heart/blood activity ratio entry is “about 90”; the “radioactivity in the heart compared to the lungs, kidneys and the liver” value is reported as “approximately 5 fold”. For the same compound, the “radioactivity uptake in the heart” value in data set [4] (throughout the first 15 min) is “approximately 5 % ID/g”. In addition, in data set [5] (pig 1, complete stent occlusion), the “myocardial perfusion image finding, rest and stress” value is “very severe, non-filling defect”. In addition, in data set [5] (pig 2, acute myocardial infarction), the “myocardial perfusion image finding, rest and stress” value was “severe, fixed, inferior wall defect, with partial inferolateral wall reversibility”. In addition, in data set [5] (pig 3, partial LCx stenosis), the “myocardial perfusion image finding at adenosine stress” value is recorded as “severe inferolateral defect” and the “myocardial perfusion image finding at rest” value was “filling in of that defect”. For the same compound, in data set [5] (pig 3, time-activity curves), the “time to minimum of blood pool activity” value came out at 5 min and the “time to plateau of cardiac accumulation” value is reported as “approximately 10 min”.
For the compound `Cc1cccc([N+](C)(C)[11CH3])c1` [[^11C]-6, [^11C]Methyl-dimethyl-m-tolyl-ammonium iodide], in data set [1] (mice, 10 min post injection), the “heart/blood activity uptake ratio” value is listed as approximately 13 fold and the “radioactivity uptake in the heart” value was approximately 20 % ID/g.
As to `C[N+](C)([11CH3])c1cccc2ccccc12.O=S(=O)([O-])C(F)(F)F` [[^11C]-7, [^11C]Methyl-dimethyl-1-naphtylammonium trifluoro-methane-sulfonate], in data set [1] (mice, 10 min post injection), the “radioactivity uptake in the heart” value is recorded as approximately 33 % ID/g. Moreover, in data set [1] (setting [6]), the “heart/blood activity uptake ratio” value is reported as not above 20 fold.
On to `[13NH3]` [[^13N]NH3, [^13N]ammonia, reference compound], for which, in data set [3], the “kidney radioactivity uptake, initial peak value” is 3 % ID/mL and the myocardial radioactivity uptake is not above 1.7 % ID/mL. For the same compound, the “myocardial perfusion image finding at adenosine stress” value in data set [5] (pig 3, partial LCx stenosis) is reported as “severe inferolateral defect”.
In the case of `[99Tc].[C-]#[N+]CC(C)(C)OC.[C-]#[N+]CC(C)(C)OC.[C-]#[N+]CC(C)(C)OC.[C-]#[N+]CC(C)(C)OC.[C-]#[N+]CC(C)(C)OC.[C-]#[N+]CC(C)(C)OC` [[^99mTc]MIBI, Technetium-99 m methoxy isobutyl isonitrile, reference compound], the “radioactivity uptake in the heart” value is listed as 24 % ID/g in data set [1] (mice, 1 min post injection); 20.5 % ID/g in data set [1] (mice, 5 min post injection); 21.4 % ID/g in data set [1] (mice, 10 min post injection); 13.8 % ID/g in data set [1] (mice, 15 min post injection). Besides, in data set [1] (mice, 15 min post injection), the “heart/blood activity uptake ratio” value came to 45.1 fold.
In the case of “[^11C]tetramethyl-ammonium iodide [[^11C]-1]”, in data set [1] (mice), the “cardiac uptake, folds lower than in the kidneys” value is 9 folds and the “cardiac uptake, folds lower than in the liver” value turned out to be 3 folds. Further, the “activity accumulation in the heart over all observed time points” value in data set [1] (mice, 1-15 min post injection) is recorded as 0.7-1.1 % ID/g. The “heart/blood activity uptake ratio” value in data set [1] (setting [6]) was “less than 6 fold”. The “log P” value in data set [2] was −3.92.
